From patent publication US20130225694A1, “COMPOSITIONS AND METHODS OF INHIBITING RETINAL DEGENERATION” (Oklahoma Medical Research Foundation, priority 2012, published 2013)

Experiments:
[1] = molecular target: T1, RPE65 isomerohydrolase (Rattus norvegicus, UniProt O70276); test: Isomerohydrolase activity assay with rat RPE microsomes (Example 2); type: biochemical
T1 construct: 50 μg microsomal proteins from the rat RPE were added into 200 μl of reaction buffer; from tissue; host or cells: rat eyecup/RPE microsomes
T1 sequence (O70276 1-533): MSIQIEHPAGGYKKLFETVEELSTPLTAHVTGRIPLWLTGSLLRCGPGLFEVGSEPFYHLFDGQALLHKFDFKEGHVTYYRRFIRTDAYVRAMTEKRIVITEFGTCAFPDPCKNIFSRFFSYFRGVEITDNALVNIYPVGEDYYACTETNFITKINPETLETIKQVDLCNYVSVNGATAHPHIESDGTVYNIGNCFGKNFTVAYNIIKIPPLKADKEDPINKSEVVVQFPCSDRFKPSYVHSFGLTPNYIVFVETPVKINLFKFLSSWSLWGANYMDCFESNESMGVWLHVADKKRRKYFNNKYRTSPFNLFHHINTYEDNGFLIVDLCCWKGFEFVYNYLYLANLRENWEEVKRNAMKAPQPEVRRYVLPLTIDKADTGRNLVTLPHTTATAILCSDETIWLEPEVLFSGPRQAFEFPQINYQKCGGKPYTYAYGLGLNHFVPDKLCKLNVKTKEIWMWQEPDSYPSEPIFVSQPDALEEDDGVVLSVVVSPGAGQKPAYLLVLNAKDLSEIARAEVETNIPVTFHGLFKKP
Method: Isomerohydrolase activity assay and PBN inhibition—Rats were sacrificed, and eyes were enucleated and dissected to remove the anterior part including lens, vitreous, and retina. The remaining eyecups containing RPE were sonicated 3 times for 20 seconds in a cold 0.32 M sucrose/0.1 M sodium phosphate buffer (pH 7.4). The homogenate was centrifuged (20 minutes, 20,000 g) to sediment sclera, unbroken cells, nuclei and mitochondria. The obtained supernatant was recentrifuged (1 hour, 100,000 g), and the microsomal pellet was resuspended in 10 mM 1,3-bis[tris(hydroxymethyl)-methylamino]propane (BTP), (pH 8.0) and 100 mM NaCl, and stored at −80° C. All-trans-[11,12-^3H]-retinol (1 mCi/ml, 45.5 Ci/mmol, American Radiolabeled Chemical, Inc., St. Louis, Mo.) in N,N-dimethyl formamide was used as the substrate for the isomerohydrolase assay. […] The upper layer was collected, and the generated retinoids were analyzed by normal phase HPLC as described (38). […] The isomerohydrolase activity was calculated from the area of the 11-cis-retinol peak using Radiomatic 610TR software (Perkin Elmer, Boston, Mass.) with synthetic 11-cis-[^3H]-retinol as a standard. […] The inhibition constant for PBN was calculated from the following equation: […] where [I]=concentration of PBN, Vm^i=maximal velocity in the presence of Vm=maximal velocity in the absence of PBN. […]

[2] = system: Rat Retina; settings: 50 mg/kg 0.5 hour before light stress 2,700 lux for 24 hours; earlier publication (1); cited from earlier work

CC(C)(C)/[N+]([O-])=C/c1ccccc1 [Compound 1, α-phenyl-N-tert-butyl nitrone]
inhibition of 11-cis-retinol generation ([1]; 1 mM PBN): almost complete inhibition | IC50 ([1]; rat RPE microsomes, 0.2 μM all-trans-[3H]-retinol, 1 h 37° C., read-out: apparent IC50 of isomerohydrolase activity): 100 µM | protection of retinal structure and function [2]: 80-90%
